Source: ChEMBL document CHEMBL3045418, “Design, synthesis and antidepressant activity evaluation 2-hydroxy-4,6-diisoprenyloxychalcone derivatives” (2013)

Key:
Assay type in all cases: functional
Conditions in all cases: route intraperitoneal
[1] = system: Mus musculus; test: Increase in yohombine-induced mortality in Kunming Mus musculus (mouse) at 30 mg/kg, ip administered for 1 hr prior to yohombine challenge measured after 24 hr (reference value: 20%)
[2] = system: Mus musculus; test: Antidepressant activity in Kunming Mus musculus (mouse) assessed as immobility time at 10 mg/kg, ip administered 30 min prior to testing measured after 2 to 6 min by forced swimming test (reference value: 116.7 +/- 12.3 secs)
[3] = system: Mus musculus; test: Antidepressant activity in Kunming Mus musculus (mouse) assessed as immobility time at 10 mg/kg, ip administered 30 min prior to testing measured after 2 to 6 min by tail suspension test (reference value: 130.5 +/- 9.6 secs)

SMILES: CN(C)CCCN1c2ccccc2CCc2ccc(Cl)cc21 [CLOMIPRAMINE]
- mortality at 30 mg/kg [1]: 80%

SMILES: CNCCC(Oc1ccc(C(F)(F)F)cc1)c1ccccc1 (stereo not drawn) [FLUOXETINE]
- Time [2]: 68.6 s
- Time [3]: 75.6 s
